Drawing on patent publication US20020068346A1, “Modified inosine 5'-monophosphate dehydrogenase polypeptides and uses thereof” (priority 2000, published 2002), this text covers Ki, Inhibition type and NADH produced for three compounds.

The target in one experiment is T1, “DKT”-IMPDH-II (Homo sapiens, UniProt P12268, DEL111-240/K241D/Q243T).
T1 construct: The full-length, human, type II impdh cDNAs were used as templates; made in house; host or cells: E. coli BL21(DE3), pET24a
As to the kind of experiment: Steady state enzyme kinetics: inhibition of IMPDH-DKT by XMP and MPA. Format: biochemical. To be noted: for Inhibition type: steady state kinetics.

Experiment [1] has as its system conversion of NAD to NADH in the presence of IMP. The experiment is described as follows: Functional activity of modified IMPDH multimers: conversion of NAD to NADH measured spectrophotometrically at 340 nm. Format: biochemical, human. To be noted: partially purified protein, 0.40 mM IMP, 0.40 mM NAD, 37° C. The procedure: Polypeptides of the modified IMPDH-DKT, -SPS, -SPT, and -AGRP were isolated and partially purified using a blue dye affinity chromatographic step. All steps were performed at 4° C. unless otherwise noted. The frozen cell pellets (e.g., described in Example 1) were thawed on ice, and resuspended in 10 mL of Buffer A (25 mM Tris, pH 8.2, 20 mM KCl, 10% glycerol (v/v), 1 mM EDTA, 5 mM DTT, and 1 μg/mL leupeptin). The cells were lysed by 2×20 second sonication pulses using a ¼″ Microtip on a Branson model 450 sonifier (set on 2.5 power setting), and excessive foaming was carefully avoided. […] The samples were evaluated for the presence of the modified IMPDH polypeptides and to approximate the purity using standard SDS-PAGE methods, with Coomassie blue staining. For each of the modified IMPDH polypeptides, it was determined that the purity of the Buffer C fractions contained approximately 75% modified IMPDH polypeptide. The total protein content was quantitated using the Bradford assay method (Bradford, M. M., 1976, Anal. Biochem., 72: 248), with Biorad protein reagent (product #500-0006) and using BSA as a protein standard.
To evaluate the functional activity of the modified IMPDH polypeptides, the conversion of NAD to NADH was measured spectrophotometrically at 340 nm, 37° C. […] The production of NADH was determined by δOD^340 (ε=6220 M^−1 cm^−1), measured for 5 min. […]

T1 sequence (P12268 with tags, fused parts or gaps DEL111-240/K241D/Q243T): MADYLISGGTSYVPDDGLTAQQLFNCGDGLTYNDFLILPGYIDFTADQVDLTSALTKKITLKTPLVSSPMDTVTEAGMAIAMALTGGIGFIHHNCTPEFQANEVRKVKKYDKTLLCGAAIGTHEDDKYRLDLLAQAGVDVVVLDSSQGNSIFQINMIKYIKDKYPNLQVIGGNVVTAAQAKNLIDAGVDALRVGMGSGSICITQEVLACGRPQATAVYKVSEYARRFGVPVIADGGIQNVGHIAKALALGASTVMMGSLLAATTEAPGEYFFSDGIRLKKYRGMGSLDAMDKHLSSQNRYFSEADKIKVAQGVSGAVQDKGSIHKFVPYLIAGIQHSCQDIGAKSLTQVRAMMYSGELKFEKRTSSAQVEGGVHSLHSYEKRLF

Turning to `O=c1[nH]c(=O)c2ncn([C@@H]3O[C@H](COP(=O)(O)O)[C@@H](O)[C@H]3O)c2[nH]1` [XMP, xanthosine-5′-monophosphate], affinity on “DKT”-IMPDH-II (buffer D, 50 nM protein) was put at a Ki of 67 ± 5 µM. Also, at “DKT”-IMPDH-II, the Inhibition type result is reported as “Competitive vs. IMP”. As for `COc1c(C)c2c(c(O)c1C/C=C(\C)CCC(=O)O)C(=O)OC2` [MPA, Mycophenolic acid], the Inhibition type result at “DKT”-IMPDH-II is given as “Uncompetitive vs. IMP”. “wild-type IMPDH holoenzyme: wild-type human type II IMPDH holo-enzyme, SEQ ID NO:49 [reference compound]”: the NADH produced entry in experiment [1] is “approximately 1.00 μmoles/min mg protein”.
